Columns and labels:
[1] = target: T1, Recombinant human integrin αVβ6 (Homo sapiens, UniProt P06756+P18564); assay: Solid Phase Receptor Assay (SPRA) for αVβ6 function; type: binding; conditions: plate-bound human LAP
T1 construct: purchased R&D Systems 3817-AV
Protocol: E. Solid Phase Receptor Assay (SPRA) for αVβ6 Function
Wells were washed 3 times with 150 μL TBS+, and then 150 μL of blocking buffer (TBS+ with 1% bovine serum albumin, Sigma A7906) was added. The plate was incubated for 1 hr at 37° C., and then washed 3× with TBS+ buffer. […] Compounds were diluted to 20 μM and then 1 μL was added to each well of the plate according to a standard template with each sample repeated in triplicate. After incubation for two hours at room temperature, the plate was washed 3× with 150 μL of TBS+ buffer. To each well, 50 μL of biotinylated anti-αV antibody (R&D Systems, BAF1219) at 0.5 μg/mL in TBS+/0.1% BSA were added and the plate was covered and incubated for 1 hr at room temperature. After washing the plate 3× with 150 μL of TBS+ buffer, 50 μL of streptavidin-conjugated horseradish peroxidase (R&D Systems, DY998) diluted in TBS+ blocking buffer were added to the wells and the plate incubated for 20 min at room temperature. The plate was washed 3× with TBS+ buffer followed by 50 μL of TMB substrate (Sigma T4444) added to each well in the dark and the plate incubated for 10 min at room temperature. 25 μL of 1.0 M phosphoric acid was added as a stop solution and the plates were read at 450 nm using a Spectramax plate reader.

[2] = target: T2, Recombinant human integrin αVβ3 (Homo sapiens, UniProt P05106+P06756); assay: Solid Phase Receptor Assay for αVβ3 function; type: binding; conditions: plate-bound human vitronectin; read-out: αVβ3 SPRA IC50
T2 construct: purchased R&D Systems 3050-AV
Protocol: C. […] Wells were washed 3 times with 150 μL TBS+ and then 150 μL of blocking buffer (TBS+ with 1% bovine serum albumin, Sigma A7906) was added. The plate was incubated for 1 hr at 37° C. and then washed 3× with TBS+ buffer. […] Compounds were diluted to 20 μM and then 1 μL was added to each well of the plate according to a standard template with each sample repeated in triplicate. After incubation for two hours at room temperature, the plate was washed 3× with 150 μL of TBS+ buffer. To each well, 50 μL of biotinylated anti-αV antibody (R&D Systems, BAF1219) at 0.5 μg/mL in TBS+/0.1% BSA were added and the plate covered and incubated for 1 hr at room temperature. After washing the plate 3× with 150 μL of TBS+ buffer, 50 μL of streptavidin-conjugated horseradish peroxidase (R&D Systems, DY998) diluted in TBS+ blocking buffer were added to the wells and the plate incubated for 20 min at room temperature. The plate was washed 3× with TBS+ buffer followed by 50 μL of TMB substrate (Sigma, T4444) added to each well in the dark and the plate was incubated for 25 min at room temperature. 25 μL of 1.0 M phosphoric acid was added as a stop solution and the plates were read at 450 nm using a Spectramax plate reader.

T1 sequence (P06756 31-992 limits assumed): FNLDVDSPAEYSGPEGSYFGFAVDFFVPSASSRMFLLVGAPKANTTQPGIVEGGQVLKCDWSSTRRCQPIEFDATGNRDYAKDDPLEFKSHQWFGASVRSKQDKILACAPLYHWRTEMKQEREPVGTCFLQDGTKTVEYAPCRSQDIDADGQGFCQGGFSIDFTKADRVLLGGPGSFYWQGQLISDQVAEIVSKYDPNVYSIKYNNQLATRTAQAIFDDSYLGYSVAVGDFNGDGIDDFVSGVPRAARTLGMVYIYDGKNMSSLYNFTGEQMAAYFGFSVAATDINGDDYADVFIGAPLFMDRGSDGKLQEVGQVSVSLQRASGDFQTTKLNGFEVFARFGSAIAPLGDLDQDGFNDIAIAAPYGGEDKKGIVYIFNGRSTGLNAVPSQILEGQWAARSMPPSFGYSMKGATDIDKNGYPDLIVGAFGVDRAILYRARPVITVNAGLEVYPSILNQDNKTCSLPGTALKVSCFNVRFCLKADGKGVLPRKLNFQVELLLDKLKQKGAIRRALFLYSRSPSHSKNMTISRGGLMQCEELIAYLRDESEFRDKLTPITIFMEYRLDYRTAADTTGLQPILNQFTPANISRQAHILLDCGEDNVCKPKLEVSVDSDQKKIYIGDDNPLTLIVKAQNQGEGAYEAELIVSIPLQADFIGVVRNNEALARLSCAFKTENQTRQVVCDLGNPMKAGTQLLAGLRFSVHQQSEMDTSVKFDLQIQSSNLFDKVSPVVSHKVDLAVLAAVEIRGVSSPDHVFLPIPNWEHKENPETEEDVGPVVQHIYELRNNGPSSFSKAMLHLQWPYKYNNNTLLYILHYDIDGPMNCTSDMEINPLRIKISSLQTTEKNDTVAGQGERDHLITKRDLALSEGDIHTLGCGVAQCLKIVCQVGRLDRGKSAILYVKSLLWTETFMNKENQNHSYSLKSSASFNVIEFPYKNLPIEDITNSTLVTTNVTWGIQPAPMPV
T1 sequence (P18564 22-707 limits assumed): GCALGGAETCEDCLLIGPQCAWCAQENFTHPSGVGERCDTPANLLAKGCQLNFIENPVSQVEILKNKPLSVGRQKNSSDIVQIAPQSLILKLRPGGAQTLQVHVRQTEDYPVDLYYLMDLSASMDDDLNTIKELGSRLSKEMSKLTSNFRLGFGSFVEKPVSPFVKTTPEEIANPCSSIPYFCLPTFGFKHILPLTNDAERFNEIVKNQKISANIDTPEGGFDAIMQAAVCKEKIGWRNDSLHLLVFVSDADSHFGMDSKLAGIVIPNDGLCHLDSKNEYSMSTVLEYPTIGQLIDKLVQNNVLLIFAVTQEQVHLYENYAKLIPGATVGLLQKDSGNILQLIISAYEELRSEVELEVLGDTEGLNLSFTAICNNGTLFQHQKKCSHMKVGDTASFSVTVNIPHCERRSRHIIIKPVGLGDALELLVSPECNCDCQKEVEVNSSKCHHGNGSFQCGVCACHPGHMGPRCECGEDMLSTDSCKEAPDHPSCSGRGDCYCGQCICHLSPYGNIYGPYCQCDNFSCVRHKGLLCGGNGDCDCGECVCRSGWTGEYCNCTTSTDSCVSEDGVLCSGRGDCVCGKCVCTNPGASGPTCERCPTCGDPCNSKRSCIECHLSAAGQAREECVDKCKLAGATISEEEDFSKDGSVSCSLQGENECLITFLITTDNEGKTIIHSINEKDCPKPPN
T2 sequence (P06756 31-992 limits assumed): as the sequence (P06756 31-992 limits assumed) above
T2 sequence (P05106 27-718 limits assumed): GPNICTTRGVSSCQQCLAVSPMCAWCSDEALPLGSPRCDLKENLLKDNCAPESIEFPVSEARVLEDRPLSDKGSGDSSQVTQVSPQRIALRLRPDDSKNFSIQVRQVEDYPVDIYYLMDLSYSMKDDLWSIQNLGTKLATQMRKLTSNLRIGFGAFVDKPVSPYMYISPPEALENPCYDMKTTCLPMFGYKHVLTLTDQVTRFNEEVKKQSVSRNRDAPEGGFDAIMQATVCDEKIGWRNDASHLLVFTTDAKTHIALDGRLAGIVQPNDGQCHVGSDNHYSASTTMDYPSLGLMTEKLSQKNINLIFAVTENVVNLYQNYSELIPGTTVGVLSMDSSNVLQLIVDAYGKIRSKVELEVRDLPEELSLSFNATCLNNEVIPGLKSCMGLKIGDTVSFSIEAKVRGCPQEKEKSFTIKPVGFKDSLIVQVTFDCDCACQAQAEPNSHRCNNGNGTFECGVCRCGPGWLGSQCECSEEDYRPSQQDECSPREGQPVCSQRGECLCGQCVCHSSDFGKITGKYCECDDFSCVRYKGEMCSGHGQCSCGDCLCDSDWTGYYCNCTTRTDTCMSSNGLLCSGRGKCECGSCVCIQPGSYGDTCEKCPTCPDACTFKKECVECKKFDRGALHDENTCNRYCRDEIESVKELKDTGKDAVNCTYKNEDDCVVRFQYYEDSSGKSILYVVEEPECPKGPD

SMILES	IC50 [1] [nM]	IC50 [2] [nM]
O=C(O)CC(Cc1cc(OCCc2ccc3c(n2)NCCC3)[nH]n1)c1cccc(F)c1 (centres unmarked) [CC2, reference compound]	54	3.1
COCC1(c2cc(C(CC(=O)O)Cc3cc(OCCc4ccc5c(n4)NCCC5)n(C)n3)cc(C(C)(C)C)c2)CCOCC1 (centres unmarked) [Example 1, 3-[3-tert-butyl-5-[4-(methoxymethyl)tetrahydropyran-4-yl]phenyl]-4-[1-methyl-5-[2-(5,6,7,8-tetrahydro-1,8-naphthyridin-2-yl)ethoxy]pyrazol-3-yl]butanoic acid]	200	48
CC(C)c1cc(C#N)cc(C(CC(=O)O)Cc2cc(OCCc3ccc4c(n3)NCCC4)n(C)n2)c1 (centres unmarked) [Example 2, 3-(3-cyano-5-isopropylphenyl)-4-(1-methyl-5-(2-(5,6,7,8-tetrahydro-1,8-naphthyridin-2-yl)ethoxy)-1H-pyrazol-3-yl)butanoic acid trifluoroacetic acid]	20	6
Cn1nc(CC(CC(=O)O)c2cc(Br)cc(S(F)(F)(F)(F)F)c2)cc1OCCc1ccc2c(n1)NCCC2 (centres unmarked) [Example 3, 3-[3-bromo-5-(pentafluoro-sulfanyl)phenyl]-4-[1-methyl-5-[2-(5,6,7,8-tetrahydro-1,8-naphthyridin-2-yl)ethoxy]pyrazol-3-yl]butanoic acid]	54	8
CC(C)c1cc(C(C)C)cc(C(CC(=O)O)Cc2cc(OCCc3ccc4c(n3)NCCC4)n(C)n2)c1 (centres unmarked) [Example 4, 3-(3,5-diisopropylphenyl)-4-[1-methyl-5-[2-(5,6,7,8-tetrahydro-1,8-naphthyridin-2-yl)ethoxy]pyrazol-3-yl]butanoic acid]	84	15
Cn1nc(CC(CC(=O)O)c2cc(C(C)(C)C)cc(C(C)(C)C(F)(F)F)c2)cc1OCCc1ccc2c(n1)NCCC2 (centres unmarked) [Example 5, 3-(3-(tert-butyl)-5-(1,1,1-trifluoro-2-methylpropan-2-yl)phenyl)-4-(1-methyl-5-(2-(5,6,7,8-tetrahydro-1,8-naphthyridin-2-yl)ethoxy)-1H-pyrazol-3-yl) butanoic acid]	460	140
Cn1nc(CC(CC(=O)O)c2cc(C(C)(C)C)cc(C3(C(F)F)CC3)c2)cc1OCCc1ccc2c(n1)NCCC2 (centres unmarked) [Example 6, 3-(3-(tert-butyl)-5-(1-(difluoromethyl)cyclopropyl)phenyl)-4-(1-methyl-5-(2-(5,6,7,8-tetrahydro-1,8-naphthyridin-2-yl)ethoxy)-1H-pyrazol-3-yl)butanoic acid]	140	120
Cn1nc(CC(CC(=O)O)c2cc(C(C)(C)C)cc(C(C)(C)CO)c2)cc1OCCc1ccc2c(n1)NCCC2 (centres unmarked) [Example 7, 3-[3-tert-butyl-5-(2-hydroxy-1,1-dimethyl-ethyl)phenyl]-4-[1-methyl-5-[2-(5,6,7,8-tetrahydro-1,8-naphthyridin-2-yl)ethoxy]pyrazol-3-yl]butanoic acid]	300	17
Cn1nc(CC(CC(=O)O)c2cc(Cl)cc(C(C)(C)C#N)c2)cc1OCCc1ccc2c(n1)NCCC2 (centres unmarked) [Example 8, 3-(3-chloro-5-(2-cyanopropan-2-yl)phenyl)-4-(1-methyl-5-(2-(5,6,7,8-tetrahydro-1,8-naphthyridin-2-yl)ethoxy)-1H-pyrazol-3-yl)butanoic acid]	36	3
Cn1nc(CC(CC(=O)O)c2cc(C(C)(C)C)cc(C(C)(C)C#N)c2)cc1OCCc1ccc2c(n1)NCCC2 (centres unmarked) [Example 9, 3-[3-tert-butyl-5-(1-cyano-1-methyl-ethyl)phenyl]-4-[1-methyl-5-[2-(5,6,7,8-tetrahydro-1,8-naphthyridin-2-yl)ethoxy]pyrazol-3-yl]butanoic acid]	150	38
COc1c(C(C)(C)C)cc(C(CC(=O)O)Cc2cc(OCCc3ccc4c(n3)NCCC4)n(C)n2)cc1C(C)(C)C (centres unmarked) [Example 10, 3-(3,5-di-tert-butyl-4-methoxyphenyl)-4-(1-methyl-5-(2-(5,6,7,8-tetrahydro-1,8-naphthyridin-2-yl)ethoxy)-1H-pyrazol-3-yl)butanoic acid]	130	410
COc1c(C(CC(=O)O)Cc2cc(OCCc3ccc4c(n3)NCCC4)n(C)n2)cc(C(C)(C)C)cc1C(C)(C)C (centres unmarked) [Example 11, 3-(3,5-di-tert-butyl-2-methoxyphenyl)-4-(1-methyl-5-(2-(5,6,7,8-tetrahydro-1,8-naphthyridin-2-yl)ethoxy)-1H-pyrazol-3-yl)butanoic acid]	11000	13000
COc1c(Br)cc(C(C)(C)C)cc1C(CC(=O)O)Cc1cc(OCCc2ccc3c(n2)NCCC3)n(C)n1 (centres unmarked) [Example 12, 3-(3-bromo-5-(tert-butyl)-2-methoxyphenyl)-4-(1-methyl-5-(2-(5,6,7,8-tetrahydro-1,8-naphthyridin-2-yl)ethoxy)-1H-pyrazol-3-yl)butanoic acid]	180	90
COc1cc(C(CC(=O)O)Cc2cc(OCCc3ccc4c(n3)NCCC4)n(C)n2)cc(C23CC4CC(CC(C4)C2)C3)c1OCc1ccccc1 (centres unmarked) [Example 13, 3-[3-(1-adamantyl)-4-benzyloxy-5-methoxy-phenyl]-4-[1-methyl-5-[2-(5,6,7,8-tetrahydro-1,8-naphthyridin-2-yl)ethoxy]pyrazol-3-yl]butanoic acid]	170	31
COc1cc(C(CC(=O)O)Cc2cc(OCCc3ccc4c(n3)NCCC4)n(C)n2)cc(C23CC4CC(CC(C4)C2)C3)c1OC (centres unmarked) [Example 14, 3-[3-(1-adamantyl)-4,5-dimethoxy-phenyl]-4-[1-methyl-5-[2-(5,6,7,8-tetrahydro-1,8-naphthyridin-2-yl)ethoxy]pyrazol-3-yl]butanoic acid]	170	9
Cn1nc(CC(CC(=O)O)c2cc3c(c(C(C)(C)C)c2)OCO3)cc1OCCc1ccc2c(n1)NCCC2 (centres unmarked) [Example 15]	60	9
Cn1nc(CC(CC(=O)O)c2cc3c(c(C(C)(C)C)c2)OCCO3)cc1OCCc1ccc2c(n1)NCCC2 (centres unmarked) [Example 16, 3-(8-(tert-butyl)-2,3-dihydrobenzo[b][1,4]dioxin-6-yl)-4-(1-methyl −5-(2-(5,6,7,8-tetrahydro-1,8-naphthyridin-2-yl)ethoxy)-1H-pyrazol-3-yl) butanoic acid]	19	7
Cn1nc(CC(CC(=O)O)c2cc(C(C)(C)C)ccc2Br)cc1OCCc1ccc2c(n1)NCCC2 (centres unmarked) [Example 17, 3-(2-bromo-5-(tert-butyl)phenyl)-4-(1-methyl-5-(2-(5,6,7,8-tetrahydro-1,8-naphthyridin-2-yl)ethoxy)-1H-pyrazol-3-yl)butanoic acid]	1900	930
Cn1nc(CC(CC(=O)O)c2cc(C(C)(C)C)ccc2C#N)cc1OCCc1ccc2c(n1)NCCC2 (centres unmarked) [Example 18, 3-(5-(tert-butyl)-2-cyanophenyl)-4-(1-methyl-5-(2-(5,6,7,8-tetrahydro-1,8-naphthyridin-2-yl)ethoxy)-1H-pyrazol-3-yl)butanoic acid]	12	56
Cn1nc(CC(CC(=O)O)c2cc(C(C)(C)C)ccc2F)cc1OCCc1ccc2c(n1)NCCC2 (centres unmarked) [Example 19, 3-(5-(tert-butyl)-2-fluorophenyl)-4-(1-methyl-5-(2-(5,6,7,8-tetrahydro-1,8-naphthyridin-2-yl)ethoxy)-1H-pyrazol-3-yl)butanoic acid]	180	6
Cn1nc(CC(CC(=O)O)c2cc(C(C)(C)C)ccc2OC(F)(F)F)cc1OCCc1ccc2c(n1)NCCC2 (centres unmarked) [Example 20, 3-(5-(tert-butyl)-2-(trifluoromethoxy)phenyl)-4-(1-methyl-5-(2-(5,6,7,8-tetrahydro-1,8-naphthyridin-2-yl)ethoxy)-1H-pyrazol-3-yl)butanoic acid]	220	880
COc1ccc(C2(C(F)F)CC2)cc1C(CC(=O)O)Cc1cc(OCCc2ccc3c(n2)NCCC3)n(C)n1 (centres unmarked) [Example 21, 3-[5-[1-(difluoromethyl)cyclopropyl]-2-methoxy-phenyl]-4-[1-methyl-5-[2-(5,6,7,8-tetrahydro-1,8-naphthyridin-2-yl)ethoxy]pyrazol-3-yl]butanoic acid]	320	340
